The results in this text go back to ChEMBL document CHEMBL1157539, “Thousands of chemical starting points for antimalarial lead identification” (Nature, 2010).

The structures appear in SMILES notation.

In this test the test system is Plasmodium falciparum. Put plainly: GSK_TCMDC: Inhibition of Plasmodium falciparum 3D7 in whole erythrocytes, using parasite LDH activity as an index of growth. In kind it is functional, organism-based. The following applies: Plasmodium falciparum, 3D7.

`COc1cccc(C(=O)NCc2cccs2)c1OCc1ccccc1`: the XC50 came out at 921 nM.

The compound `COc1ccc(NC(=O)CCNc2cc(C)nc(NCCOc3ccccc3)n2)cc1` showed an XC50 of 746 nM.

`O=C(Cn1c(CCc2cccc(F)c2F)nc(=O)c2cccnc21)N(Cc1ccc(-c2ccc(C(F)(F)F)cc2)cc1)C1CCN(C2CCOCC2)CC1` had an XC50 of 828 nM.

`CCC[C@@H]([C@@H](CC(C)C)C(=O)N[C@@H](CCCCNC(=O)c1cccc(OC)c1)C(=O)Nc1nccs1)N(O)C=O` showed an XC50 of 104 nM.

`O=C(Nc1cccc(-c2cccc(-c3nc4ccccc4[nH]3)c2)c1)c1ccoc1` registered an XC50 of 741 nM.

For `Cc1nn(CC(C)C)c2sc(C(=O)Nc3nc(-c4ccccn4)cs3)cc12`, the XC50 is 961 nM.

For the compound `O=c1nc(C=Cc2ccc(Br)cc2)oc2ccccc12`, the XC50 turned out to be 1050 nM.

`CCCCC(CC)CN1C(=O)C(c2ccccc2)(c2ccccc2)N=C1N` (stereo not given): the XC50 worked out at 189 nM.

In turn, `Cc1cc(NC(=O)Nc2ccc(I)c(OCCN(C)C)c2)ccc1Br` yielded an XC50 of 625 nM.

The compound `CCCc1ccc(NC(=O)c2cccc(CN3CCCN(Cc4cccc(O)c4)CC3)c2)cc1` registered an XC50 of 748 nM.

Take `Cc1ccc(-c2cc(C(=O)Nc3ccc(S(=O)(=O)N4CCCCC4)cc3)[nH]n2)c(O)c1`: the XC50 was determined as 1770 nM.

Compound `CCCc1cc(Cc2cnc(N)nc2N)cc2c1OC(C)(C)C2` showed an XC50 of 1080 nM.

The compound `COc1ccc(CN2CCC(CNCC(c3ccccc3)c3ccccc3)CC2)cc1` gave an XC50 of 228 nM.

`COc1cc(NC(=O)c2ccc(-c3ccccc3)cc2)ccc1OCCCN1CCC(c2ccccc2)CC1`: the XC50 turned out to be 752 nM.

In turn, `O=C(Cc1ccsc1)NCC(c1ccccc1Cl)c1c[nH]c2ccccc12` (stereo not given) came in with an XC50 of 950 nM.

Compound `COc1cc2c(cc1S(=O)(=O)c1ccc(NC(=O)Nc3ccc(F)cc3)cc1)CCN(C)CC2` gave an XC50 of 473 nM.

In the case of `CC(C)CC(NC(=O)c1ccc(F)cc1)C(=O)N[C@H](/C=N/N1CCNC1=O)CC(C)C` (stereo not given in full), the XC50 is 1030 nM.

As for `COc1ccc(CNC(=O)c2cnc3c(O)cccc3c2Nc2cccc(NC(=O)c3ccc(F)cc3)c2)cc1`, the XC50 turned out to be 996 nM.

`O=C(Nc1ccc(Cn2ncc(N3CCCNCC3)c(Cl)c2=O)cc1)Nc1cccc(SC(F)(F)F)c1`: the XC50 turned out to be 675 nM.

`CCOc1cc(Cc2cnc(N)nc2N)cc(OCC)c1OCC` showed an XC50 of 284 nM.

`COc1ccc2nccc(CCC3(O)CCC(NCc4cc5c(cc4F)SCC(=O)N5)CC3)c2c1` (stereo not given) registered an XC50 of 675 nM.

`COc1ccc2nccc([C@@H](O)CN3CCC(NCc4ccc5nc[nH]c(=O)c5c4)CC3)c2c1` displayed an XC50 of 921 nM.

On to `Cc1ccc(C2CCN(CCCCNC(=O)c3ccc(NC(=O)c4ccc(Cl)cc4)cc3)CC2)c(OCC2CC2)c1`, for which the XC50 is 887 nM.

With `COc1ccc2[nH]cc(C3=CCN(CC4CC4C(=O)c4ccccc4)CC3)c2n1` (stereo not given), the XC50 came out at 270 nM.

On to `CC[C@H](NC(=O)c1c(CCCN2CCN(c3ccccc3)CC2)c(-c2ccccc2)nc2cc(O)ccc12)c1ccccc1`, for which the XC50 amounted to 780 nM.

Consider `CCCCCN1CCCC(NS(=O)(=O)c2ccc(C(=O)Nc3ccc(C(F)(F)F)cc3)cc2)C1` (stereo not given), for which the XC50 came out at 1630 nM.

In the case of `Cc1nnsc1C(=O)Nc1cccc(-c2cccc(-c3nc4cc(F)ccc4[nH]3)c2)c1`, the XC50 was 218 nM.

`COc1ccc(CCN(C)CCCCc2ccc(NC(=O)c3cccc4c(=O)c5cc(F)ccc5sc34)cc2)cc1OC` displayed an XC50 of 897 nM.

`CC(C)Nc1nc(NCCc2c[nH]cn2)nc(NCc2cccc3ccccc23)n1` registered an XC50 of 1010 nM.

Compound `CN1CCN(CCCCNc2c3ccccc3nc3ccccc23)CC1` had an XC50 of 704 nM.

Take `Cc1cc2nc(-c3ccc(/C=C/C(=O)NC4CCN(Cc5ccccc5)CC4)cc3)[nH]c2cc1C`: the XC50 worked out at 588 nM.

As for `N#Cc1ccc(N2CCN(Cc3cccc(-c4cccc(-c5nc6cc(C(F)(F)F)ccc6[nH]5)c4)c3)CC2)nc1`, the XC50 was determined as 962 nM.

Regarding `CCCCCCCCNCc1c(O)ccc2ccccc12`, the XC50 came to 739 nM.

For the compound `O=C(O)CCSSc1cccc[n+]1[O-]`, the XC50 amounted to 808 nM.

`CN1CCC[C@H]1COc1ccc(CN2CC[C@H](NC(=O)c3ccc(Cl)c(Cl)c3)C2)cc1Cl` showed an XC50 of 1150 nM.

The compound `Cc1cc(F)ccc1Nc1nc(N(C)c2ccccc2)c2cc(OCCCN(C)C)ccc2n1` showed an XC50 of 717 nM.

On to `CCNc1cc(C)nc(Nc2ccc(NS(=O)(=O)c3cc(OC)ccc3OC)cc2)n1`, for which the XC50 stood at 853 nM.

`CN(C)c1ccc(N2C(N)=NC(N)=NC23CCCC3)cc1`: the XC50 worked out at 935 nM.

The compound `COc1ccccc1CCNc1nc(C)cc(N[C@@H](CC(C)C)C(=O)NCCc2ccccc2)n1` displayed an XC50 of 718 nM.

`CNC(=O)c1cc(S(=O)(=O)Nc2ccc(OC)cc2)cs1` came in with an XC50 of 1130 nM.

On to `O=C(C=Cc1ccc(Cl)c(Cl)c1)NCCCCCN1CCC(c2n[nH]c3ccccc23)CC1`, for which the XC50 came out at 638 nM.

`Cc1cc(Nc2ccc(Oc3ccc(Cl)cc3)cc2)nc(N)n1` showed an XC50 of 616 nM.

As to `O=C(NCc1ccc(Cl)c(Cl)c1)c1ccc(-c2nc3cc(F)c(F)cc3[nH]2)cc1`, the XC50 turned out to be 1050 nM.

The compound `O=C(Nc1ccc(Cl)c(Cl)c1)N1CCc2cc3nccc(N4CCN5CCC[C@H]5C4)c3cc21` displayed an XC50 of 628 nM.

`NC1CCN(CCc2ccc(NS(=O)(=O)c3ccc(-c4ccccc4)cc3)cc2)CC1` returned an XC50 of 1020 nM.

`C[C@H](Cc1ccc(CCc2ccc(C[C@@H](C)NC[C@H](O)c3cccc(Cl)c3)cc2)cc1)NC[C@H](O)c1cccc(Cl)c1`: the XC50 came to 935 nM.

`CN1CCC(Oc2ccc(CN3CC[C@H](NC(=O)c4ccc(F)c(F)c4)C3)c3ccccc23)C1` (stereo not given in full) yielded an XC50 of 1080 nM.

`CCc1cn2c3c(cc(C(=O)N[C@@H](Cc4cccc(Cl)c4)[C@H](O)CNC4CC4)cc13)N(C)S(=O)(=O)CC2` gave an XC50 of 145 nM.

Compound `CCOC(=O)c1cnc2c(OC)cc(OC)c(Cl)c2c1Nc1cccc(C)c1C` had an XC50 of 310 nM.

`O=C(c1ccccc1)N(Cc1ccccc1-c1ccc(CNCCc2ccccc2)cc1)C1CCN(Cc2ccccc2)CC1` yielded an XC50 of 995 nM.

`COc1ccc(-n2cc(C(=O)c3cc(Br)ccc3O)cc(C#N)c2=O)cc1Cl` returned an XC50 of 791 nM.

In turn, `Cc1cc(=O)c(-c2ccc(OCc3ccc(OC(F)(F)F)cc3)cc2)c(C)[nH]1` gave an XC50 of 736 nM.

`O=[N+]([O-])c1ccc(C2=NN(S(=O)(=O)c3c(Cl)cc(Cl)cc3Cl)CCCC2)cc1`: the XC50 is 125 nM.

As to `O=C(NCCC1CCN(CCc2c[nH]c3ccccc23)CC1)Nc1ccc(Cl)c(Cl)c1`, the XC50 amounted to 834 nM.

Regarding `CC1(C)N=C(N)N=C(N)N1c1ccc([N+](=O)[O-])cc1`, the XC50 is 234 nM.

The compound `CC(C)CCN1CCCN(Cc2ccc(C(=O)Nc3ccc(C(C)(C)C)cc3)cc2)CC1` came in with an XC50 of 867 nM.

In turn, `COc1cc(C(=O)NC2CCc3ccccc32)cc(Cl)c1OC` (stereo not given) had an XC50 of 1100 nM.

The compound `CN(C)CCNC(=O)c1ccc(-c2ccc3c(Nc4ccccc4)c(C(N)=O)cnc3c2)cc1` showed an XC50 of 728 nM.

In turn, `CCCCC(CC)C(=O)C(NC(=O)[C@H](CSC(c1ccccc1)(c1ccccc1)c1ccccc1)NC(=O)OC(C)(C)C)C(=O)OC` (stereo not given in full) returned an XC50 of 1020 nM.

In the case of `N=C(N)NC(=O)Nc1cc(Cl)c(Cl)c(C(F)(F)F)c1`, the XC50 was 611 nM.

`CC(Cc1ccc(OCc2ccccc2)cc1)Nc1nc(O)c2ccccc2n1` (stereo not given): the XC50 was found to be 568 nM.

As to `CC1(C)N=C(N)N=C(N)N1OCc1ccc2ccccc2c1`, the XC50 came to 3.2 nM.

The compound `COc1ccc(Nc2ncc3c(-c4cccc(NC(=O)Cc5ccc(O)cc5)c4)c[nH]c3n2)cc1OC` had an XC50 of 570 nM.

For `CCC1CN2CCc3c([nH]c4ccccc34)C2CC1CC1=NCCc2c1[nH]c1ccccc21` (stereo not given), the XC50 was 737 nM.

The compound `C=CCn1c(Cc2ccccc2)nnc1Sc1ccc(C#N)c([N+](=O)[O-])c1` had an XC50 of 1030 nM.

The compound `CCC(C)NS(=O)(=O)c1ccc2nc(Nc3ccc(C)cc3)n([C@H](C)C(C)(C)C)c2c1` (stereo not given in full) yielded an XC50 of 391 nM.

In turn, `O=C(/C=C/c1cc(C(F)(F)F)ccc1F)NCCCCCN1CCC(c2c[nH]c3ccccc23)CC1` came in with an XC50 of 1130 nM.

The compound `Cc1ccc(NC(=O)NC2CCN(CCCCCNC(=O)/C=C/c3ccc(Cl)c(Cl)c3)CC2)cc1` showed an XC50 of 694 nM.

Turning to `O=C(/C=C/c1ccc(Cl)c(Cl)c1)N1CCC(NCc2c[nH]c3ccccc23)CC1`, the XC50 is 1070 nM.

Take `CCN(CCCN1CCCCC1)c1cc(C)nc(Nc2cccc(C(F)(F)F)c2)n1`: the XC50 turned out to be 289 nM.

Regarding `O=C(NCc1cccc(C(F)(F)F)c1)C1CCCN(C(=O)c2ccc(O)c(-c3ccc(Cl)c(Cl)c3)c2)C1` (stereo not given), the XC50 was found to be 804 nM.

In the case of `CC(=O)N1CCC(C(=O)Nc2ccc(-c3cccc(-c4nc5cc(C(F)(F)F)ccc5[nH]4)c3)cc2)CC1`, the XC50 was 239 nM.

For the compound `CCCCCCc1cnc2nc(N)nc(N)c2c1C`, the XC50 is 194 nM.

Consider `CCS[C@@H]1O[C@H](COC(=O)c2ccccc2)[C@H](OC(=O)c2ccccc2)[C@H](OC(=O)c2ccccc2)[C@H]1OC(=O)c1ccccc1`, for which the XC50 came out at 808 nM.

`Cc1ccc(CN2CCC(C(=O)Nc3ccc(-c4cc5ccccc5[nH]4)cc3)CC2)o1`: the XC50 came out at 1420 nM.

In the case of `Cc1sc(C)c(CNCCCNc2cc(=O)c3ccccc3[nH]2)c1Br`, the XC50 was determined as 878 nM.

Take `Oc1ccc(CCNc2nc(NCc3cccc(OCc4cccc(F)c4)c3)nc(N3CCNCC3)n2)cc1`: the XC50 was determined as 1340 nM.

On to `COc1ccccc1C1CN(Cc2coc3ccccc3c2=O)Cc2ccccc2O1` (stereo not given), for which the XC50 worked out at 1320 nM.

`CCOC(=O)c1ccc(N(CCCN(CCCN(c2ccc(C(=O)OCC)cc2)S(=O)(=O)c2ccc(C)cc2)CCc2ccc(O)cc2)S(=O)(=O)c2ccc(C)cc2)cc1` had an XC50 of 1050 nM.

The compound `CCOc1cc(C(=O)NCc2cc(Cl)cc(Cl)c2)ccc1-c1nc2cc(Cl)ccc2[nH]1` gave an XC50 of 730 nM.

Compound `NS(=O)(=O)c1cncc(-c2ccc3nccc(-c4cn[nH]c4)c3n2)c1` displayed an XC50 of 526 nM.

On to `CCCc1cn2c3c(cc(C(=O)N[C@@H](Cc4ccccc4)[C@H](O)CNC4CCCCC4)cc13)N(C)S(=O)(=O)CC2`, for which the XC50 stood at 66.9 nM.

Take `Cc1cc(O)c2c3c1C(=O)C=C1C3c3c(c(O)cc(O)c3C(=O)C1(C)C)C2=O` (stereo not given): the XC50 worked out at 1680 nM.

On to `O=S(=O)(NCCN1CCCC1)c1ccc(-c2cccc(CNCc3ccc(F)cc3)c2)s1`, for which the XC50 stood at 764 nM.

With `CC1(C)NC(N)=NC(=N)N1OCCCOc1cccc(Cl)c1`, the XC50 is 3.2 nM.
